Where two headings read alike, the source gives them in different places.
How the values were obtained:
ATXN2-luc [1] = test: qHTS (NCGC LOPAC pilot and primary), Steady-Glo luciferase, 1536-well; type: cell-based
Procedure: 4 μl of S2 cell suspension in phenol-red free DMEM was dispensed into wells of 1536-well assay plates. […] Next, SteadyGlo luciferase substrate detection reagent (3 μl) was added to each well and incubated for an additional 5 minutes at room temperature. Luminescence was then measured on the ViewLux imager equipped with clear filters using a 2 sec exposure. All screening operations were performed on a fully integrated robotic system (Kalypsys) containing one RX-130 and two RX-90 anthropomorphic robotic arms (Staubli). Vehicle-only plates, with DMSO being pin-transferred to columns 5-48, were inserted uniformly at the beginning and the end of each library in order to monitor and record any shifts in assay performance.
Screening to optimize the assay in 1536-well format was conducted at the NCGC laboratory using S2 cells. […] Cytotoxicity was determined using a multiplexed viability assay (CellTiter-Fluor). […] Cells were plated 1000 cells/well in 1536 well plates. Plates were assayed for ATXN2-luc expression (Steady-Glo) and compound effect on cell abundance (CellTiter-Fluor), with increases shown for each well indicated by red, and decreases indicated by blue.
A fluorescence-based viability assay using GF-AFC substrate was used to determine compound effect on cell viability and Steady-Glo was used to measure luciferase in a multiplexed assay.

ATXN2-luc [2] = conditions: H2 cells
ATXN2-luc [3] = conditions: average ATXN2-luc response of H2 and S1 cells
ATXN2-luc [4] = test: Secondary assays, Bright-Glo luciferase in H2 and S2 cells; type: cell-based; conditions: for min ATXN2-luc: minimum ATXN2-luc luciferase over 12 doses, H2 and S2 cells
Procedure: (§1) Compounds were plated at 2× concentrations in 25 μl in 384 well plates with each compound dose plated in triplicate. An equal volume of S2, H2, or SC cells (24,000 cells/well) suspended in phenol-red free Dulbecco's Modified Eagle Medium (DMEM) with 10% fetal bovine serum and 1× penicillin/streptomycin were added. Cells were grown 24 hrs then assayed first by using the CellTiter-Fluor reagent (20 μl) followed by the addition of Bright-Glo ([…]) luciferase assay, using a multimode plate reader (Beckman DT880). Values were reported as the mean±standard deviation (SD) with n=3. IC50s were determined by the Hill coefficient method using an online tool (https://www.aatbio.com/tools/ic50-calculator).
(§2) These 46 compounds were retested at 12 doses and a zero-compound dose, in multiplexed assays in 96-well plates using CellTiter-Fluor to determine cell viability, then Bright-Glo to determine luciferase expression. The values for H2 and S2 were used as replicates to calculate IC50s and to assess cell viability.
(§3) For CMV-luc and viability charts, the fitted lines are second-order polynomials. Means and SD are shown.

CMV-luc = test: Secondary assays, Bright-Glo luciferase in SC cells; type: cell-based; conditions: minimum CMV-luc luciferase in SC cells over 12 doses
Procedure: as §1, §3

H2, S2, and SC cells = test: Secondary assays, CellTiter-Fluor viability
Procedure: as §1, §2, §3

ATXN2-luc [5] = test: Orthogonal ATXN2-luc luciferase assay in H2 cells; type: cell-based
Source text: (§4) Probabilities are from one-way ANOVA and post-hoc Bonferroni corrected t-tests: ns, not significant; **, P<0.01.

H2 cells = test: Orthogonal paired MTT viability in H2 cells; type: cell-based; conditions: at 1 nM
Procedure: ATXN2 expression associates with the expression of the proscillaridin A target ATP1A2. […] The cells were also evaluated for viability by MTT assay. Values shown are means and standard deviations. HEK-293 cells were then treated with increasing doses of proscillaridin A for either 24 and 48 hours, showing >50% reduction of endogenous ATXN2 when cells were treated with 1 nM proscillaridin A at 48 hours.

endogenous ATXN2 = test: Endogenous ATXN2 expression in HEK-293 cells by qPCR; type: cell-based
Source text: Total RNA was extracted from cells cultured in 24-well plates using the RNeasy Mini-Kit (Qiagen Inc.) according to the manufacturer's protocol. DNAse I treated RNAs were used to synthesize cDNA using ProtoScript cDNA synthesis kit (New England Biolabs Inc.). Sets of primers used for qPCR included ATXN2 primers ATXN2-F (5′-[sequence]-3′) & ATXN2-R (5′-[sequence]-3′), ATP1A2 primers ATP1A2-F (5′-[sequence]-3′) & ATP1A2-R (5′-[sequence]-3′), GAPDH primers GAPDH-F133 (5′-[sequence]-3′) & GAPDH-R333 (5′-[sequence]-3′), and mouse Actb primers Actb-F (5′-[sequence]-3′) & Actb-R (5′-[sequence]-3′). qPCR was performed in the Bio-Rad CFX96 instrument (Bio-Rad Inc.) with the Power SYBR Green PCR master mix (Applied Biosystems Inc.). PCR amplification was carried out for 45 cycles. Cycling parameters were denaturation (95° C. for 10 s), annealing (60° C. for 10 s), extension (72° C. for 40 s).
as §4

[6] = S2 cells, LOPAC1280 library, 24 hrs
[7] = Table 1, 24 hrs, single 10 μM dose, Z-score of luciferase
[8] = ATXN2-luc, Bright-Glo, H2 and S2 values used as replicates, 12 doses, 96-well plates, read-out: Mean IC50
[9] = minimum cell viability, CellTiter-Fluor, over 12 doses

| Compound | IC50 (ATXN2-luc [4]; [8]) [nM] | min ATXN2-luc (ATXN2-luc [4]) [%] | min SC luc (CMV-luc) [%] | min viability (H2, S2, and SC cells; [9]) [%] | min viability (H2, S2, and SC cells) [%] | other results |
| --- | --- | --- | --- | --- | --- | --- |
| Naltrindole hydrochloride | – | – | – | – | – | Curve Class (ATXN2-luc [1]; [6]): −2.2 |
| C[C@H]1O[C@@H](O[C@H]2CC[C@]3(C=O)[C@H]4CC[C@]5(C)[C@@H](C6=CC(=O)OC6)CC[C@]5(O)[C@@H]4CC[C@]3(O)C2)C[C@H](O)[C@@H]1O [Helveticoside] | – | – | – | – | – | Curve Class (ATXN2-luc [1]; [6]): −1.1; SD from Mean (ATXN2-luc [2]; [7]): −2.733 SD; SD from Mean (ATXN2-luc [2]; Table 5S, pilot screen, 10 μM): −2.733 SD; Luc at 1 μm (ATXN2-luc [3]): 118; Luc at 10 μm (ATXN2-luc [3]): 41 |
| Protriptyline hydrochloride | – | – | – | – | – | Curve Class (ATXN2-luc [1]): −2.2 |
| Nc1ncnc2c1c(-c1cnc3[nH]ccc3c1)nn2C1CCCC1 [PP121] | 4160 | 27.48 | 78.1 | 50.39 | – | – |
| CN(c1ccccc1CNc1nc(Nc2ccc3c(c2)CC(=O)N3)ncc1C(F)(F)F)S(C)(=O)=O [PF-431396] | 2320 | 15.51 | 98.3 | – | 64.59 | – |
| S=C(NCCCN1CCOCC1)N1CCN(c2nc(-c3ccccc3)cs2)CC1 [MLS000706289] | 6850 | 61.65 | 79.3 | – | 89.11 | – |
| Cc1cnc(NC(=O)CN2CCN(c3ccccn3)CC2)s1 [MLS000035284] | 12900 | 38.57 | 4.094 | – | 76.85 | – |
| CNC(=O)c1cc(Oc2ccc(NC(=O)Nc3cc(C(C)(C)C)nn3-c3ccc4ncccc4c3)c(F)c2)ccn1 [Rebastinib (DCC-2036)] | 3730 | 27.07 | 60.58 | – | 56.58 | – |
| C[C@@H]1O[C@@H](O[C@@H]2C=C3CC[C@@H]4[C@H](CC[C@]5(C)[C@@H](c6ccc(=O)oc6)CC[C@]45O)[C@@]3(C)CC2)[C@H](O)[C@H](O)[C@H]1O [Proscillaridin A] | – | 7.986 | 122 | 74.18 | – | IC50 (ATXN2-luc [4]; H2 and S2 used as replicates, 24 hrs, read-out: IC50 (ATXN2-luc, secondary assays)): 17 nM; IC50 (ATXN2-luc [5]; H2 cells treated for 48 hrs, read-out: IC50 (ATXN2-luc expression)): 0.052 nM; ATXN2-luc reduction (ATXN2-luc [5]; H2 cells, at 1 nM): 80%; cellular viability (MTT method) (H2 cells): minimal effect on cellular viability; reduction of endogenous ATXN2 (endogenous ATXN2; 1 nM, 48 hours): > 50%; IC50 (endogenous ATXN2; 48 hrs): 677 nM; SD from Mean (ATXN2-luc [2]; [7]): −7.684 SD; SD from Mean (ATXN2-luc [2]; Table 5S, pilot screen, 10 μM): −7.684 SD; Luc at 1 μm (ATXN2-luc [3]): 54; Luc at 10 μm (ATXN2-luc [3]): 22 |
| C[C@H]1CCC/C=C/[C@@H]2C[C@H](O)C[C@H]2[C@H](O)/C=C/C(=O)O1 [Brefeldin A] | 2890 | 44.72 | 84.38 | 72.98 | – | – |

— patent publication US20260137707A1, “METHODS OF MODULATING ATXN2 EXPRESSION” (University of Utah Research Foundation, priority 2022, published 2026)
